From ChEMBL document CHEMBL1667837, “Structure and property based design, synthesis and biological evaluation of γ-lactam based HDAC inhibitors” (Bioorg Med Chem Lett, 2011)
Values belong to the molecule of their own block, whether it stands above or below them.

Key:
MDA-MB-231 = test: Cytotoxicity against human MDA-MB-231 cells; format: functional
[1] = Inhibition of HDAC by fluorescence assay
ACHN = test: Cytotoxicity against human ACHN cells; format: functional
HCT-15 = test: Cytotoxicity against human HCT15 cells; format: functional
NCI-H23 = test: Cytotoxicity against human NCI-H23 cells; format: functional
PC-3 = test: Cytotoxicity against human PC3 cells; format: functional
LOX IMVI = test: Cytotoxicity against human LOXIMVI cells; format: functional
NUGC-3 = test: Cytotoxicity against human NUGC3 cells; format: functional
[2] = Metabolic stability in ICR mouse liver microsomes assessed as compound remaining at 1 uM after 60 mins in presence of NADPH; format: ADME, Microsome; settings: read-out: Stability
[3] = Metabolic stability in ICR mouse liver microsomes assessed as compound remaining at 1 uM after 60 mins in absence of NADPH; format: ADME, Microsome; settings: read-out: Stability
[4] = Apparent permeability across human Caco2 cells; format: ADME, cell-based; settings: Caco-2
[5] = Metabolic stability in ICR mouse liver microsomes assessed as compound remaining at 1 uM after 60 mins in presence of buffer; format: ADME, Microsome; settings: read-out: Stability
HCT-116 [6] = test: Antitumor activity against human HCT116 cells xenografted in nude mouse assessed as inhibition of tumor growth at 30 mg/kg, ip for 20 days relative to control; format: functional; set-up: scale not given: the % may be the effect or the level left; settings: route intraperitoneal
[7] = Half life in BALB/c mouse at 5 mg/kg, iv; format: ADME, organism-based; set-up: dose 5 mg/kg, route intravenous; settings: in vivo
Histone deacetylase 1 = Histone deacetylase 1 (Homo sapiens, UniProt Q13547); test: Inhibition of HDAC1 by fluorescence assay
Mus musculus = test: Toxicity in human HCT116 cells xenografted nude mouse assessed as change in body weight at 30 mg/kg, ip for 20 days; format: organism-based, HCT-116; set-up: dose 30 mg/kg, route intraperitoneal; settings: in vivo, 480 h
[8] = Oral bioavailability in BALB/c mouse at 20 mg/kg; format: ADME, organism-based; settings: in vivo
[9] = Half life in BALB/c mouse at 20 mg/kg, po; format: ADME, organism-based; set-up: dose 20 mg/kg, route oral; settings: in vivo
HCT-116 [10] = test: Antitumor activity against human HCT116 cells xenografted in nude mouse assessed as reduction of tumor volume at 30 mg/kg, ip for 20 days (reference value: 369.8 mm'3); format: functional; settings: route intraperitoneal
[11] = target: T1, Protein deacetylase HDAC6 (Homo sapiens, UniProt Q9UBN7)
T1 sequence (Q9UBN7 whole entry): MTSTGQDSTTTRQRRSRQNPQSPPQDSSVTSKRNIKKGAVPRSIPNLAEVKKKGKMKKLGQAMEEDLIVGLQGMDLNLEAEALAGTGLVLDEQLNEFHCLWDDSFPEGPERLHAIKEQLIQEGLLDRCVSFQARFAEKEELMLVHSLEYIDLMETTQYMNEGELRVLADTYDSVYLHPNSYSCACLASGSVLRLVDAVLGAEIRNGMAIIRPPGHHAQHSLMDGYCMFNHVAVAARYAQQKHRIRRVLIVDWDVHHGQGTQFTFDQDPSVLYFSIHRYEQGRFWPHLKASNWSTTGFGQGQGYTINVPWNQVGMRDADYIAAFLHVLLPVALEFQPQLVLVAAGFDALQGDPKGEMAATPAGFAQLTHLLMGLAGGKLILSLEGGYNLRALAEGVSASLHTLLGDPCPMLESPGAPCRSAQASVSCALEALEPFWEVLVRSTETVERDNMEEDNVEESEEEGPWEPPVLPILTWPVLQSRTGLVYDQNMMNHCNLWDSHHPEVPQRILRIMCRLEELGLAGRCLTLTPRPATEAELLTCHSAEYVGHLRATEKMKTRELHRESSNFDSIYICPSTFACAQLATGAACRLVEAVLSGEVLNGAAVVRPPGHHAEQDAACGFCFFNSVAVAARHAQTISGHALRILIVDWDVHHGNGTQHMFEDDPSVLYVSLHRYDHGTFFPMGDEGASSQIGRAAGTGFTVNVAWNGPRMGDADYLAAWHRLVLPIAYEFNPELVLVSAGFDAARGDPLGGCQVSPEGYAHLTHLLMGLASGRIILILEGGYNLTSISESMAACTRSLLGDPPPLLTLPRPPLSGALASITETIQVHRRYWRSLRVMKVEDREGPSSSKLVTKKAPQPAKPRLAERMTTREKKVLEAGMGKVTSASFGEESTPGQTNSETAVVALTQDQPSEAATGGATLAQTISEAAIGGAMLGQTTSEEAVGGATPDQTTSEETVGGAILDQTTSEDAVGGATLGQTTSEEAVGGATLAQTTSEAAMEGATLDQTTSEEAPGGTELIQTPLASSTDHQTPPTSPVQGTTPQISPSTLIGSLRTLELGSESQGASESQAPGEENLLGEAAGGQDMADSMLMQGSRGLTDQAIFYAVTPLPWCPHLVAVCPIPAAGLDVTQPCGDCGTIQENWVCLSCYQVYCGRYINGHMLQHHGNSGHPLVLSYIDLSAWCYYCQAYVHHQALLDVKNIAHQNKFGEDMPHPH

Histone deacetylase 8 = target: T2, Histone deacetylase 8 (Homo sapiens, UniProt Q9BY41); test: Inhibition of HDAC8 by fluorescence assay
T2 sequence (Q9BY41 whole entry): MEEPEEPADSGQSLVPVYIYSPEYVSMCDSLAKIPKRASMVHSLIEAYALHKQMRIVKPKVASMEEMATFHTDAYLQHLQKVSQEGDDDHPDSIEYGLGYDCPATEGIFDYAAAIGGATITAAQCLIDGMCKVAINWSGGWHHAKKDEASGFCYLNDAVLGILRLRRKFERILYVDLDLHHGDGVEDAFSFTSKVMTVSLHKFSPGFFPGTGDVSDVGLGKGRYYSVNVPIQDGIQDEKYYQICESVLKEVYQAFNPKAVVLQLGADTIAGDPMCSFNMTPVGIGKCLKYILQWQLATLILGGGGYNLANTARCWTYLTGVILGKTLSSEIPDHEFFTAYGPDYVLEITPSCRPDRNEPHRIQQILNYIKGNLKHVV

Histone deacetylase 3 = Histone deacetylase 3 (Homo sapiens, UniProt O15379)
[12] = Inhibition of HDAC assessed as increase of histone H4 acetylation
[13] = Volume of distribution at steady state in BALB/c mouse at 5 mg/kg, iv; format: ADME, organism-based; set-up: dose 5 mg/kg, route intravenous; settings: in vivo, read-out: Vdss
[14] = AUC (0 to infinity) in BALB/c mouse at 5 mg/kg, iv; format: ADME, organism-based; set-up: time infinity, dose 5 mg/kg, route intravenous; settings: plasma
[15] = AUC (0 to 5 hrs) in BALB/c mouse at 20 mg/kg, po; format: ADME, organism-based; set-up: time < 4 hr, dose 20 mg/kg, route oral; settings: plasma
[16] = Clearance in BALB/c mouse at 5 mg/kg, iv; format: ADME, organism-based; set-up: dose 5 mg/kg, route intravenous; settings: in vivo
[17] = Cmax in BALB/c mouse at 20 mg/kg, po; format: ADME, organism-based; set-up: dose 20 mg/kg, route oral; settings: in vivo
[18] = Tmax in BALB/c mouse at 20 mg/kg, po; format: ADME, organism-based; set-up: dose 20 mg/kg, route oral; settings: in vivo
[19] = Inhibition of HDAC assessed as increase of histone H3 acetylation
Histone deacetylase 2 = Histone deacetylase 2 (Homo sapiens, UniProt Q92769); test: Inhibition of HDAC2 by fluorescence assay
Histone deacetylase 2, sequence (Q92769 whole entry): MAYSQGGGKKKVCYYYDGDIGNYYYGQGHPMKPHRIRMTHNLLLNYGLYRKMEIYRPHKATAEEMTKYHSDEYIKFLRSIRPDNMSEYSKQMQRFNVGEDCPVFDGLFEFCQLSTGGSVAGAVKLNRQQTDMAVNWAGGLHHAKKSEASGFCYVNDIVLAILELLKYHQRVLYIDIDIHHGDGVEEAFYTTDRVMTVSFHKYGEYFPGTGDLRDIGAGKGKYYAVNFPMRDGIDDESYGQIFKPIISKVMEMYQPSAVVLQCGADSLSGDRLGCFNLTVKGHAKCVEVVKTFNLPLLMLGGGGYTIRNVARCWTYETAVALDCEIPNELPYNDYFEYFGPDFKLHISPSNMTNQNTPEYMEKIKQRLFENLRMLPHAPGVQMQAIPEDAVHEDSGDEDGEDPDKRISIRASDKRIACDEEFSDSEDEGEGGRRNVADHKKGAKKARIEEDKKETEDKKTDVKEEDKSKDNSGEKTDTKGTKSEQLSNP

Histone deacetylase 3, sequence (O15379 whole entry): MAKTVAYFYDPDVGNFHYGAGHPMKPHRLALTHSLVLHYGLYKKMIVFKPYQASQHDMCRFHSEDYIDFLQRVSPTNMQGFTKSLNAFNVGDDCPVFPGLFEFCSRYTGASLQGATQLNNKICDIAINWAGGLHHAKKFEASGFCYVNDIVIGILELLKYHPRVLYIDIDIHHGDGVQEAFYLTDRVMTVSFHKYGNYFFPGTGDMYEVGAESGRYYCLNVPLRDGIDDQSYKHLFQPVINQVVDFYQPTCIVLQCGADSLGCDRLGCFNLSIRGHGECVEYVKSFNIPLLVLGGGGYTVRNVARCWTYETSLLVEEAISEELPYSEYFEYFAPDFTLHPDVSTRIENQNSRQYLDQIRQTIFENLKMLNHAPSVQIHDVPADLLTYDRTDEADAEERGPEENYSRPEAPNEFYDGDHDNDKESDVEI
Histone deacetylase 1, sequence (Q13547 whole entry): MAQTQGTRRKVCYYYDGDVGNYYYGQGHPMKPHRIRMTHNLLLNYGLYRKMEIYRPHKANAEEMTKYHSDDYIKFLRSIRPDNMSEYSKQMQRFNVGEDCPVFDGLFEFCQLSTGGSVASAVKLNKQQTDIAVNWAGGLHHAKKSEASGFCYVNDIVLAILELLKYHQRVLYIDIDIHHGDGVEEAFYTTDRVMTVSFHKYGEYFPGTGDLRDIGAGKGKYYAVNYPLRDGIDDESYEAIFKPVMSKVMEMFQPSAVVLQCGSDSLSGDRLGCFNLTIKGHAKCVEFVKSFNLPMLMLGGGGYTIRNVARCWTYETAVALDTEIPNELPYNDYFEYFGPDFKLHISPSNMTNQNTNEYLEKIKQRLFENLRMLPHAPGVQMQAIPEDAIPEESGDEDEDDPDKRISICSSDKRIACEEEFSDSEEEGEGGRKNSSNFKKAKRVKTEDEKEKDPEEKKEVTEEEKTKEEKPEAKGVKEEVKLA

IC50 [1]: 30 µM
Structure (SMILES): O=C(CCC1=CCCN(Cc2ccc3ccccc3c2)C1=O)NO
GI50 (MDA-MB-231): 4.07 µM
GI50 (ACHN): 6.09 µM
GI50 (HCT-15): 6.82 µM
GI50 (NCI-H23): 30 µM
GI50 (PC-3): 30 µM
GI50 (LOX IMVI): 30 µM

IC50 [1]: 0.67 µM
Structure (SMILES): O=C(CCC1=CCCN(Cc2ccccc2)C1=O)NO
GI50 (MDA-MB-231): 4.26 µM
GI50 (ACHN): 30 µM
GI50 (HCT-15): 30 µM
GI50 (NCI-H23): 30 µM
GI50 (PC-3): 30 µM
GI50 (LOX IMVI): 30 µM

IC50 [1]: 0.32 µM
Structure (SMILES): O=C(CCC1=CCCN(CCc2cccc3ccccc23)C1=O)NO

IC50 [1]: 0.35 µM
Structure (SMILES): O=C(CCC1=CCCN(CCc2ccccc2)C1=O)NO
GI50 (MDA-MB-231): 1.62 µM
GI50 (ACHN): 7.76 µM
GI50 (HCT-15): 8.16 µM
GI50 (NCI-H23): 30 µM
GI50 (PC-3): 9.84 µM
GI50 (LOX IMVI): 5.84 µM

IC50 [1]: 0.36 µM
remaining at 1 h, 1 µM [2]: 3.9%
remaining at 1 h, 1 µM [3]: 15.1%
Structure (SMILES): O=C(CCC1=CCN(CCc2cccc3ccccc23)C1=O)NO
GI50 (MDA-MB-231): 4.76 µM
GI50 (ACHN): 6.41 µM
GI50 (HCT-15): 6.78 µM
GI50 (NUGC-3): 5.23 µM
GI50 (NCI-H23): 5.13 µM
GI50 (PC-3): 5.76 µM
GI50 (LOX IMVI): 3.71 µM

IC50 [1]: 0.15 µM
Structure (SMILES): O=C(CCC1=CCN(Cc2ccc3ccccc3c2)C1=O)NO
GI50 (MDA-MB-231): 1.22 µM
GI50 (ACHN): 1.39 µM
GI50 (HCT-15): 3.54 µM
GI50 (NCI-H23): 5.19 µM
GI50 (PC-3): 4.88 µM
GI50 (LOX IMVI): 7.98 µM

IC50 [1]: 0.05 µM
remaining at 1 h, 1 µM [2]: 29.7%
remaining at 1 h, 1 µM [3]: 46.6%
Structure (SMILES): O=C(CCC1=CCN(CCc2ccc3ccccc3c2)C1=O)NO
GI50 (MDA-MB-231): 0.59 µM
GI50 (ACHN): 0.63 µM
GI50 (HCT-15): 0.84 µM
GI50 (NUGC-3): 0.8 µM
GI50 (NCI-H23): 0.5 µM
GI50 (PC-3): 0.34 µM
GI50 (LOX IMVI): 0.61 µM

IC50 [1]: 0.05 µM
remaining at 1 h, 1 µM [2]: 66.6%
remaining at 1 h, 1 µM [3]: 66.3%
Papp [4]: 9.5 ×10⁻⁶ cm/s
Structure (SMILES): O=C(CCC1=CCN(CCCc2ccccc2)C1=O)NO
GI50 (MDA-MB-231): 3.81 µM
GI50 (ACHN): 4.24 µM
GI50 (HCT-15): 6.23 µM
GI50 (NUGC-3): 2.6 µM
GI50 (NCI-H23): 3.46 µM
GI50 (PC-3): 3.91 µM
GI50 (LOX IMVI): 4.52 µM

IC50 [1]: 0.04 µM
remaining at 1 h, 1 µM [5]: 99.1%
remaining at 1 h, 1 µM [2]: 10.3%
remaining at 1 h, 1 µM [3]: 31%
Papp [4]: 19.1 ×10⁻⁶ cm/s
Structure (SMILES): O=C(CCC1=CCCN(CCc2ccc3ccccc3c2)C1=O)NO
GI50 (MDA-MB-231): 0.45 µM
GI50 (ACHN): 0.61 µM
GI50 (HCT-15): 0.79 µM
GI50 (NUGC-3): 0.42 µM
GI50 (NCI-H23): 0.54 µM
GI50 (PC-3): 0.56 µM
GI50 (LOX IMVI): 0.56 µM

half-life [7]: 9 min
IC50 (Histone deacetylase 1): 25.6 µM
bioavailability [8]: 8.7%
IC50 [1]: 0.01 µM
half-life [9]: 38.4 min
IC50 [11]: 0.8 µM
IC50 (Histone deacetylase 8): 120 µM
IC50 (Histone deacetylase 3): 80.1 µM
remaining at 1 h, 1 µM [5]: 97.2%
inhibition [12]: Dose-dependent effect
Vd [13]: 0.85 L/kg
AUC(0-inf) [14]: 890 ng·h/mL
AUC(0-t) at 4 h [15]: 309 ng·h/mL
clearance [16]: 93.7 mL/min/kg
Cmax [17]: 813 ng/mL
Tmax [18]: 15 min
inhibition [19]: Dose-dependent effect
remaining at 1 h, 1 µM [2]: 43.1%
remaining at 1 h, 1 µM [3]: 71.1%
Papp [4]: 16.3 ×10⁻⁶ cm/s
IC50 (Histone deacetylase 2): 16.4 µM
Structure (SMILES): O=C(CCC1=CCN(CCCc2ccc3ccccc3c2)C1=O)NO
Activity (HCT-116 [6]): 34.4%
GI50 (MDA-MB-231): 0.65 µM
Activity (Mus musculus): Non-toxic
Activity (HCT-116 [10]): 242.2 mm3
GI50 (ACHN): 0.65 µM
GI50 (HCT-15): 0.78 µM
GI50 (NUGC-3): 0.61 µM
GI50 (NCI-H23): 0.61 µM
GI50 (PC-3): 1.09 µM
GI50 (LOX IMVI): 0.82 µM

IC50 [1]: 0.27 µM
Papp [4]: 17.5 ×10⁻⁶ cm/s
Structure (SMILES): O=C(CCC1=CCCN(CCCc2ccccc2)C1=O)NO
GI50 (PC-3): 6.98 µM

inhibition [12]: Dose-dependent effect
inhibition [19]: Dose-dependent effect
Structure (SMILES): CC(/C=C/C(=O)NO)=C\[C@@H](C)C(=O)c1ccc(N(C)C)cc1

IC50 [1]: 0.8 µM
Structure (SMILES): O=C(CCC1=CCN(Cc2ccccc2)C1=O)NO
GI50 (MDA-MB-231): 4.73 µM
GI50 (ACHN): 30 µM
GI50 (HCT-15): 30 µM
GI50 (NCI-H23): 30 µM
GI50 (PC-3): 30 µM
GI50 (LOX IMVI): 30 µM

IC50 [1]: 0.14 µM
Structure (SMILES): O=C(CCC1=CCCN(CCCc2ccc3ccccc3c2)C1=O)NO
GI50 (MDA-MB-231): 4.7 µM
GI50 (ACHN): 5.78 µM
GI50 (PC-3): 3.77 µM

IC50 [1]: 0.12 µM
Structure (SMILES): O=C(CCC1=CCN(CCc2ccccc2)C1=O)NO
GI50 (MDA-MB-231): 0.99 µM
GI50 (ACHN): 1.08 µM
GI50 (HCT-15): 5.37 µM
GI50 (NCI-H23): 4.29 µM
GI50 (PC-3): 4.43 µM
GI50 (LOX IMVI): 30 µM
